Measurements as given in patent US6890720B1, “Antigens derived from filaggrin and their use for diagnosing rheumatoid polyarthritis” (Biomerieux, priority 1996, dated 2005).
Square brackets hold non-standard residues; d marks the D form. Cit = NC(=O)NCCC[C@H](N)C(=O)O

B1: fil-gst: recombinant human filaggrin unit fused with glutathione S-transferase (GST), expressed in E. coli (protein)
chain: QSESAHGRTGTSTGGRQGSHHKQARDSSRHSTSQEGQDTIHGHPGSSSGGRQGSHYEQLVDRSGHSGSHHSHTTSQGRSDASHGHSGSRSASRQTRNDEQSGDGSRHSGSRHHEASSRADSSGHSQVGQGQSEGPRTSRNWGSSFSQDSDSQGHSEDSERWSGSASRNHHGSAQEQLRDGSRHPRSHQEDRAGHGHSADSSRQSGTRHTQTSSGGQAASSHEQARSSAGERHGSHHQQSADSSRHSGIGHGQASSAVRDSGHRGYSGSQASDNEGHSEDSDTQSVSAHGQAGSHQQSHQESARGRSGETSGHSGSFLYQVSTHE
modifications: left off: a dimerising Fc or GST
notes: recombinant human filaggrin unit fused with glutathione S-transferase (GST), expressed in E. coli

Assays:
[1] = system: serum from a patient suffering from RA; test: Dot-blot of peptides and fil-gst before and after PAD, serum from an RA patient; format: binding, human; conditions: serum 1/2000
Description: (§1) These 2 peptides, as well as fil-gst, were citrullinated by the action of PAD, for 30 minutes at 50° C., in the same reaction medium as that indicated in Example 2. The specific conditions for each peptide, and for the fil-gst are the following: • peptide S-47-S (SEQ ID NO:3): 4 mU/μmol arginine • peptide S-35-R (SEQ ID NO:4): 2.7 mU/μmol arginine • fil-gst as indicated in Example 2.
(§2) The reactivity of each peptide and that of fil-gst, before and after action of the enzyme, towards the monoclonal antibody AHF4, and the serum from a patient suffering from RA, is compared by dot-blot.
(§3) The operating conditions are the following: • 0.5 μg by deposition of each antigen (peptides, fil-gst, acido-neutral variants of filaggrin (AVF)) • nitrocellulose treatment 45 minutes at 80° C., before immunodetection • RA serum used at the dilution of 1/2000; monoclonal antibody AHF4 used at a concentration of 0.2 μg/ml

[2] = system: anti-filaggrin autoantibodies (AFAs); test: ELISA of citrullinated and noncitrullinated peptides coated on microtiter plates; format: binding, human
Description: The reactivity of each citrullinated and noncitrullinated peptide was tested respectively in relation to a normal serum, to two sera from RA patients, to anti-filaggrin antibodies (AFAs) purified from a pool of 45 sera from RA patients and to anti-filaggrin antibodies purified from 12 sera from RA patients.
The wells of NUNC MAXISORP microtiter plates were respectively coated with the aid of the noncitrullinated and citrullinated peptides E-12-D (SEQ ID NO:6) and E-12-H (SEQ ID NO:5), diluted to a concentration of 5 μg/ml in a PBS buffer (pH: 7.4) and incubated overnight at 4° C. (final volume: […]). The wells were saturated for 30 minutes at 37° C. in PBS-Tween 20, 0.05%, 2.5% gelatin, 200 μl/well. The negative control serum (normal serum) was diluted 1/120. The antifilaggrin antibodies were diluted in PBS-Tween 20, 0.05%-0.5% gelatin (PBS TG) such that the final anti-filaggrin autoantibody concentrations are those indicated in the accompanying Table I. The negative control serum, the RA sera and the anti-filaggrin antibodies were added (final volume: 100 μl/well) and incubated for 1 hour at 37° C. and overnight at 4° C. Peroxidase-labeled goat antibodies anti-gamma heavy chains of the human immunoglobulins (marketed by the company SOUTHERN BIOTECHNOLOGIES) were added to each well (dilution in PBSTG: 1/2000, final volume: 100 μl/well) and incubated for 1 hour at 37° C.
The results presented in the accompanying Table I are given as a ratio of OD at 492 nm: citrullinated peptide signal/noncitrullinated peptide signal.

monoclonal antibody AHF4 = test: Dot-blot of peptides and fil-gst before and after PAD, monoclonal antibody AHF4; format: binding; conditions: 0.5 μg antigen per deposit, AHF4 0.2 μg/ml
Description: as §1, §2, §3

[3] = system: AFAs present in sera from patients suffering from RA; test: Immunoblot of fil-gst deiminated in vitro by PAD, revealed with a pool of 5 RA sera; format: binding, human; conditions: for recognition by the sera from patients suffering from RA: pool of 5 RA sera 1/2000
Description: (§4) The mixture of the 9 fragments is subjected to deimination in vitro by peptidylarginine deiminase.
(§5) A rabbit muscle peptidylarginine deiminase preparation (681 U/ml) marketed by TAKARA BIOMED EUROPE is used according to the protocol recommended by the manufacturer.
(§6) The operating conditions are the following: • reaction medium: 0.1 M Tris-HCl, 10 mM CaCl2, 5 mM DTT, pH 7.4; • enzyme/substrate ratio: 140 mU/μmol of filaggrin containing 10% arginine or 4 mU/μmol of arginine; • incubation: between 0 and 60 min at 50° C.; • termination of the reaction: heating 3 min in LAEMMLI buffer.
(§7) 1 μl of each sample is deposited on an electrophoresis gel (PHAST®-SDS gel 12.5% PHARMACIA), and the electrophoresis is carried out with the PHAST-SYSTEM® apparatus (PHARMACIA), under the conditions recommended by the manufacturer. […] Dermatol. 105, 432, (1995)] at the concentration of 0.2 μg/ml (FIG. 3b).
The results are illustrated by FIG. 3 • Lane 1: BSA (1 hour, 50° C.) • Lane 2: BSA+PAD (1 hour, 50° C.) • Lane 3: fil-gst (1 hour, […]) • Lane 5: fil-gst+PAD (15 minutes, 50° C.) • Lane 6: fil-gst+PAD (30 minutes, 50° C.) • Lane 7: fil-gst+PAD (1 hour, 50° C.) • Lane 8: fil-gst+PAD+inhibitor (1 hour, 50° C.)

[4] = system: anti-filaggrin monoclonal antibody AHF2; test: Immunoblot of fil-gst deiminated in vitro by PAD, revealed with monoclonal antibody AHF2; format: binding; conditions: AHF2 0.2 μg/ml
Description: as §4, §5, §6, §7
The results are illustrated by FIG. 3 • Lane 1: BSA (1 hour, 50° C.) • Lane 2: BSA+PAD (1 hour, 50° C.) • Lane 3: fil-gst (1 hour, 50° C.) • Lane 4: fil-gst+PAD (15 minutes, 50° C.) • Lane 5: fil-gst+PAD (15 minutes, 50° C.) • Lane 6: fil-gst+PAD (30 minutes, 50° C.) • Lane 7: fil-gst+PAD (1 hour, 50° C.) • Lane 8: fil-gst+PAD+inhibitor (1 hour, 50° C.)

[5] = Control serum (normal serum) diluted 1/120
[6] = Pool of AFAs (purified from 45 RA sera), 5 μg/ml
[7] = Pool of AFAs (purified from 45 RA sera), 10 μg/ml
[8] = Pool of AFAs (purified from 45 RA sera), 20 μg/ml
[9] = citrullinated (PAD 30 minutes at 50° C.)
[10] = after citrullination (PAD 30 minutes at 50° C.), 0.5 μg antigen per deposit
[11] = not citrullinated, 0.5 μg antigen per deposit

Molecule	ratio of OD at 492 nm: citrullinated peptide signal/noncitrullinated peptide signal [2, 5]	ratio of OD at 492 nm: citrullinated peptide signal/noncitrullinated peptide signal [2, 6]	ratio of OD at 492 nm: citrullinated peptide signal/noncitrullinated peptide signal [2, 7]	ratio of OD at 492 nm: citrullinated peptide signal/noncitrullinated peptide signal [2, 8]	ratio of OD at 492 nm: citrullinated peptide signal/noncitrullinated peptide signal ([2]; RA1 serum, AFAs 10 μg/ml)	ratio of OD at 492 nm: citrullinated peptide signal/noncitrullinated peptide signal ([2]; RA1 serum, AFAs 20 μg/ml)	ratio of OD at 492 nm: citrullinated peptide signal/noncitrullinated peptide signal ([2]; RA2 serum, AFAs 5 μg/ml)	ratio of OD at 492 nm: citrullinated peptide signal/noncitrullinated peptide signal ([2]; RA2 serum, AFAs 10 μg/ml)	ratio of OD at 492 nm: citrullinated peptide signal/noncitrullinated peptide signal ([2]; RA2 serum, AFAs 20 μg/ml)	recognition by AHF4 (monoclonal antibody AHF4; [9])	recognition by AHF4 (monoclonal antibody AHF4; not citrullinated)	recognition by the serum from the patient suffering from RA [1, 10]	recognition by the serum from the patient suffering from RA [1, 11]	further results
AVFs: acido-neutral variants of human epidermal filaggrin [reference compound]	–	–	–	–	–	–	–	–	–	–	–	–	–	recognition by the serum from the patient suffering from RA ([1]; natural antigen as such, 0.5 μg per deposit): recognizes
NH2-EQSADSSRHSGSGH-COOH (H-EQSADSS[Cit]HSGSGH-OH) [Peptide E-12-H]	1	2.45	2.42	1.82	1.32	1.20	10.44	11.51	8.38	–	–	–	–	–
NH2-ESSRDGSRHPRSHD-COOH (H-ESSRDGSRHPRSHD-OH; not fully specified; printed as NH2-ESSRDGSRHPRSHD-COOH) [Peptide E-12-D]	1.076	1.77	1.63	1.48	1.42	1.85	2.42	3.77	5.57	–	–	–	–	–
NH2-SQDRDSQAQSEDSERRSASASRNHRGSAQEQSRDGSR-COOH (H-SQDRDSQAQSEDSERRSASASRNHRGSAQEQSRDGSR-OH; also: citrullinated, positions not given here; listed as Homo sapiens) [Peptide S-35-R, peptide of 37 amino acids, amino acids 155 to 191 of a human filaggrin unit, 7 arginine residues; tested before and after PAD]	–	–	–	–	–	–	–	–	–	does not recognize	does not recognize	not recognized	not recognized	–
NH2-STGHSGSQHSHTTTQGRSDASRGSSGSRSTSRETRDQEQSGDGSRHSGS-COOH (H-STGHSGSQHSHTTTQGRSDASRGSSGSRSTSRETRDQEQSGDGSRHSGS-OH; also: citrullinated, positions not given here; listed as Homo sapiens) [Peptide S-47-S, peptide of 49 amino acids, amino acids 71 to 119 of a human filaggrin unit, 6 arginine residues; tested before and after PAD]	–	–	–	–	–	–	–	–	–	recognizes	recognizes	recognized	–	–
B1	–	–	–	–	–	–	–	–	–	recognizes	recognizes	–	does not recognize	reactivity with the pool of RA sera ([3]; PAD reacted for 60 minutes at 50° C. (lane 7), sera 1/2000): increase in reactivity; recognition by the sera from patients suffering from RA ([3]; absence of citrullination reaction (1 h, 50° C. without PAD, lane 3)): not recognized; recognition by the sera from patients suffering from RA ([3]; from 5 minutes of citrullination with PAD at 50° C. (lane 4)): detected; recognition by monoclonal antibody AHF2 ([4]; citrullinated): recognizes all the fragments; recognition by monoclonal antibody AHF2 ([4]; not citrullinated): recognizes all the fragments
